Experiments:
ragweed = assay: Test A pre-/postemergence herbicide test; assay type: in vivo, Ambrosia elatior
In short: (§1)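 Directed soil spray to seeded pots (preemergence) or spray onto one- to two-leaf seedlings 2–10 cm tall (postemergence); loam/sand substrate throughout. Evaluated visually after about 10 days against untreated plants, 0 = no effect, 100 = complete control.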

barnyardgrass [1] = assay: Test B flooded paddy test; assay type: in vivo, Echinochloa crus-galli; conditions: 500 g ai/ha, Flood; scale of 0 to 100 where 0 is no effect and 100 is complete control
In short: (§2)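 Visual ratings from 0, meaning no effect, up to 100, meaning complete control, were made by comparison with untreated controls 13 to 15 days after treatment. Test compounds went straight into floodwater standing 3 cm over the soil of pots holding 2-leaf seedlings.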

kochia = assay: Test A pre-/postemergence herbicide test; assay type: in vivo, Kochia scoparia
In short: as §1

rice = assay: Test B flooded paddy test; assay type: in vivo, Oryza sativa; conditions: 500 g ai/ha, Flood; scale of 0 to 100 where 0 is no effect and 100 is complete control
In short: as §2

galium = assay: Test A postemergence herbicide test; assay type: in vivo, Galium aparine
In short: (§3)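 Young potted plants in a loam–sand mix, one- to two-leaf stage and 2–10 cm tall, receive the test chemical postemergence and stay in a greenhouse for approximately 10 days. Injury is then judged by eye against untreated plants, scored 0 (none) to 100 (complete control).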

ryegrass, Italian = assay: Test A pre-/postemergence herbicide test; assay type: in vivo, Lolium multiflorum
In short: as §1

corn = assay: Test A pre-/postemergence herbicide test; assay type: in vivo, Zea mays; conditions: Postemergence
In short: as §1

barnyardgrass [2] = assay: Test A pre-/postemergence herbicide test; assay type: in vivo, Echinochloa crus-galli
In short: as §1

blackgrass = assay: Test A postemergence herbicide test; assay type: in vivo, Alopecurus myosuroides
In short: as §3

giant foxtail = assay: Test A pre-/postemergence herbicide test; assay type: in vivo, Setaria faberii
In short: as §1

sedge, umbrella = assay: Test B flooded paddy test; assay type: in vivo, Cyperus difformis; conditions: 500 g ai/ha, Flood; scale of 0 to 100 where 0 is no effect and 100 is complete control
In short: as §2

pigweed = assay: Test A pre-/postemergence herbicide test; assay type: in vivo, Amaranthus retroflexus
In short: as §1

wheat = assay: Test A pre-/postemergence herbicide test; assay type: in vivo, Triticum aestivum; conditions: Postemergence
In short: as §1

ducksalad = assay: Test B flooded paddy test; assay type: in vivo, Heteranthera limosa; conditions: 500 g ai/ha, Flood; scale of 0 to 100 where 0 is no effect and 100 is complete control
In short: as §2

[3] = Postemergence, 125 g ai/ha, visual rating on 0 to 100 scale (0 no effect, 100 complete control), approx. 10 days
[4] = Postemergence, 500 g ai/ha, 0 to 100 scale (0 no effect, 100 complete control)
[5] = Preemergence, 125 g ai/ha, 0 to 100 scale where 0 is no effect and 100 is complete control
[6] = preemergence, 500 g ai/ha, 0 to 100 scale, 0 is no effect and 100 is complete control
[7] = 125 g ai/ha, visual rating on 0 to 100 scale (0 no effect, 100 complete control), approx. 10 days
[8] = 500 g ai/ha, 0 to 100 scale (0 no effect, 100 complete control)
[9] = Preemergence, 500 g ai/ha, visual rating on 0 to 100 scale (0 no effect, 100 complete control)

SMILES	Plant response rating, Ragweed (ragweed; [3])	Plant response rating, Ragweed (ragweed; [4])	Plant response rating, Ragweed (ragweed; [5])	Plant response rating, Ragweed (ragweed; [6])	Plant response rating, Barnyardgrass (barnyardgrass [1])	Plant response rating, Kochia (kochia; [3])	Plant response rating, Kochia (kochia; [4])	Plant response rating, Kochia (kochia; [5])	Plant response rating, Kochia (kochia; [6])	Plant response rating, Rice (rice)	Plant response rating, Galium (galium; [7])	Plant response rating, Galium (galium; [8])	Plant response rating, Ryegrass, Italian (ryegrass, Italian; [3])	Plant response rating, Ryegrass, Italian (ryegrass, Italian; [4])	Plant response rating, Ryegrass, Italian (ryegrass, Italian; [5])	Ryegrass, Italian plant response rating (ryegrass, Italian; [9])	Plant response rating, Corn (corn; [7])	Plant response rating, Corn (corn; [8])	Plant response rating, Barnyardgrass (barnyardgrass [2]; [3])	Plant response rating, Barnyardgrass (barnyardgrass [2]; [4])	further results
O=C1NCC(c2ccc(Cl)s2)C1C(=O)Nc1cccc(F)c1F (stereo not drawn) [Compound 294]	0	20	0	0	20	30	50	40	90	0	0	30	0	20	0	30	0	0	60	90	Plant response rating, Barnyardgrass (barnyardgrass [2]; [5]): 70; Plant response rating, Barnyardgrass (barnyardgrass [2]; [6]): 90; Plant response rating, Blackgrass (blackgrass; [7]): 20; Plant response rating, Blackgrass (blackgrass; [8]): 30; Plant response rating, Foxtail, Giant (giant foxtail; [3]): 30; Plant response rating, Foxtail, Giant (giant foxtail; [4]): 80; Plant response rating, Foxtail, Giant (giant foxtail; [5]): 70; Plant response rating, Foxtail, Giant (giant foxtail; [6]): 90; Plant response rating, Sedge, Umbrella (sedge, umbrella): 0; Plant response rating, Pigweed (pigweed; [3]): 0; Plant response rating, Pigweed (pigweed; [4]): 0; Plant response rating, Pigweed (pigweed; [5]): 0; Plant response rating, Pigweed (pigweed; [6]): 20; Plant response rating, Wheat (wheat; [7]): 20; Plant response rating, Wheat (wheat; [8]): 20; Plant response rating, Ducksalad (ducksalad): 98
O=C1NCC(c2cc3ccccc3s2)C1C(=O)Nc1ccccc1F (stereo not drawn) [Compound 295]	0	0	0	0	30	0	0	0	0	0	0	10	0	0	0	0	0	0	0	50	Plant response rating, Barnyardgrass (barnyardgrass [2]; [5]): 0; Plant response rating, Barnyardgrass (barnyardgrass [2]; [6]): 70; Plant response rating, Blackgrass (blackgrass; [7]): 0; Plant response rating, Blackgrass (blackgrass; [8]): 0; Plant response rating, Foxtail, Giant (giant foxtail; [3]): 0; Plant response rating, Foxtail, Giant (giant foxtail; [4]): 0; Plant response rating, Foxtail, Giant (giant foxtail; [5]): 0; Plant response rating, Foxtail, Giant (giant foxtail; [6]): 20; Plant response rating, Sedge, Umbrella (sedge, umbrella): 0; Plant response rating, Pigweed (pigweed; [3]): 0; Plant response rating, Pigweed (pigweed; [4]): 0; Plant response rating, Pigweed (pigweed; [5]): 0; Plant response rating, Pigweed (pigweed; [6]): 0; Plant response rating, Wheat (wheat; [7]): 0; Plant response rating, Wheat (wheat; [8]): 0; Plant response rating, Ducksalad (ducksalad): 40
O=C1NCC(c2cc3ccccc3s2)C1C(=O)Nc1cccc(F)c1F (stereo not drawn) [Compound 296]	0	0	0	0	30	0	0	0	0	0	0	0	0	0	0	0	0	0	0	20	Plant response rating, Barnyardgrass (barnyardgrass [2]; [5]): 0; Plant response rating, Barnyardgrass (barnyardgrass [2]; [6]): 0; Plant response rating, Blackgrass (blackgrass; [7]): 0; Plant response rating, Blackgrass (blackgrass; [8]): 0; Plant response rating, Foxtail, Giant (giant foxtail; [3]): 0; Plant response rating, Foxtail, Giant (giant foxtail; [4]): 0; Plant response rating, Foxtail, Giant (giant foxtail; [5]): 0; Plant response rating, Foxtail, Giant (giant foxtail; [6]): 0; Plant response rating, Sedge, Umbrella (sedge, umbrella): 0; Plant response rating, Pigweed (pigweed; [3]): 0; Plant response rating, Pigweed (pigweed; [4]): 0; Plant response rating, Pigweed (pigweed; [5]): 0; Plant response rating, Pigweed (pigweed; [6]): 0; Plant response rating, Wheat (wheat; [7]): 0; Plant response rating, Wheat (wheat; [8]): 0; Plant response rating, Ducksalad (ducksalad): 60

— patent publication US10294202B2, “Pyrrolidinones as herbicides” (FMC Corporation, priority 2013, dated 2019)
